Assay results published in patent publication US7566733B2, “Benzimidazole derivatives useful as selective androgen receptor modulators (sarms)” (priority 2004, dated 2009).

Tested on: castrated male Sprague Dawley rats
Experiment: Ventral Prostate and Seminal Vesicle Weight In Vivo Assay; further: key: active: the non weight adjusted prostate weight was ≦40 mg or the % Inhibition prostate weight, body weight adjusted was ≧40%@2 mg/day dosage; inactive: did not meet the specified criteria defined above
Conditions: inhibition of testosterone-enhanced prostate weight; immature castrated rats, once daily for five days, usually orally 40 mg/kg, with testosterone propionate 2 mg/kg s.c.
Method: Ventral Prostate and Seminal Vesicle Weight In Vivo Assay; further: key: active: the non weight adjusted prostate weight was ≦40 mg or the % Inhibition prostate weight, body weight adjusted was ≧40%@2 mg/day dosage; inactive: did not meet the specified criteria defined above
Immature (approximately 50 g) castrated male Sprague Dawley rats (Charles River) were treated once daily for five days with test compound (usually given orally at 40 mg/kg in a volume of 0.3 mL, in 30% cyclodextrin or 0.5% methylcellulose vehicle) and with testosterone propionate (given subcutaneously by injection at the nape of the neck at 2 mg/kg, in a volume of 0.1 mL in sesame oil). On the sixth day, the rats were euthanized by asphyxiation in carbon dioxide. Ventral prosatates and seminal vesicles were removed and their wet weights determined. Test compound activity was determined as the percent inhibition of testosterone-enhanced tissue weights, with a vehicle-treated control group set to zero percent and a testosterone alone-treated control group set to 100%.
Representative compounds of the present invention were tested according to the procedure described, with results as listed in Table 7 below. A test compound is listed as “active” if the non weight adjusted prostate weight was ≦40 mg or the % Inhibition prostate weight, body weight adjusted was ≧40%@2 mg/day dosage. ID50's, if determined, of ≦15 mg/day also indicated an “active” compound.

Row | SMILES | Activity
1 | CCOC(=O)Cn1c(CC(F)(F)F)nc2cc(Cl)c(Cl)cc21 [Compound 81, [5,6-Dichloro-2-(2,2,2-trifluoro-ethyl)-benzoimidazol-1-yl]-acetic Acid Ethyl Ester] | inactive
2 | O[C@H](c1nc2cc(Cl)c(Cl)cc2[nH]1)C(F)(F)F [Compound 82, (−)-1-(5,6-DiChloro-1H-benzoimidazol-2-yl-)2,2,2-trifluoro-ethanol] | active
3 | O[C@@H](c1nc2cc(Cl)c(Cl)cc2[nH]1)C(F)(F)F [Compound 83, (+)-1-(5,6-DiChloro-1H-benzoimidazol-2-yl-)2,2,2-trifluoro-ethanol] | active
4 | O=C(Cn1c(CC(F)(F)F)nc2cc(Cl)c(Cl)cc21)c1cc2ccccc2o1 [Compound 84, 1-Benzofuran-2-yl-2-[5,6-dichloro-2-(2,2,2-trifluoro-ethyl)-benzoimidazol-1-yl]-ethanone] | inactive
5 | O=C(Cn1c(CC(F)(F)F)nc2cc(Cl)c(Cl)cc21)c1ccc(Cl)cc1 [Compound 85, 1-(4-Chloro-phenyl)-2-[5,6-dichloro-2-(2,2,2-trifluoro-ethyl)-benzoimidazol-1-yl]-ethanone] | inactive
6 | COc1cccc(C(=O)Cn2c(CC(F)(F)F)nc3cc(Cl)c(Cl)cc32)c1 [Compound 86, 2-[5,6-Dichloro-2-(2,2,2-trifluoro-ethyl)-benzoimidazol-1-yl]-1-(3-methoxy-phenyl)-ethanone] | inactive
7 | O=C(Cn1c(CC(F)(F)F)nc2cc(Cl)c(Cl)cc21)c1cccnc1 [Compound 87, 2-[5,6-Dichloro-2-(2,2,2-trifluoro-ethyl)-benzoimidazol-1-yl]-1-pyridin-3-yl-ethanone] | inactive
8 | O=C(Cn1c(CC(F)(F)F)nc2cc(Cl)c(Cl)cc21)c1ccc(-c2ccccn2)s1 [Compound 88, 2-[5,6-Dichloro-2-(2,2,2-trifluoro-ethyl)-benzoimidazol-1-yl]-1-(5-pyridin-2-yl-thiophen-2-yl)-ethanone] | inactive
9 | Fc1ccc(Cn2c(CC(F)(F)F)nc3cc(Cl)c(Cl)cc32)cc1 [Compound 89, 5,6-Dichloro-1-(4-fluoro-benzyl)-2-(2,2,2-trifluoro-ethyl)-1H-benzoimidazole] | active
10 | COc1ccccc1C(=O)Cn1c(CC(F)(F)F)nc2cc(Cl)c(Cl)cc21 [Compound 90, 2-[5,6-Dichloro-2-(2,2,2-trifluoro-ethyl)-benzoimidazol-1-yl]-1-(2-methoxy-phenyl)-ethanone] | inactive
11 | O=C(Cn1c(CC(F)(F)F)nc2cc(Cl)c(Cl)cc21)c1cccs1 [Compound 91, 2-[5,6-Dichloro-2-(2,2,2-trifluoro-ethyl)-benzoimidazol-1-yl]-1-thiophen-2-yl-ethanone] | active
12 | O=C(Cn1c(CC(F)(F)F)nc2cc(Cl)c(Cl)cc21)c1ccccn1 [Compound 92, 2-[5,6-Dichloro-2-(2,2,2-trifluoro-ethyl)-benzoimidazol-1-yl]-1-pyridin-2-yl-ethanone] | active
13 | FC(F)(F)Cc1nc2cc(Cl)c(Cl)cc2n1Cc1cccc(C(F)(F)F)c1 [Compound 93, 5,6-Dichloro-2-(2,2,2-trifluoro-ethyl)-1-(3-trifluoromethyl-benzyl)-1H-benzoimidazole] | active
14 | Fc1c(F)c(F)c(Cn2c(CC(F)(F)F)nc3cc(Cl)c(Cl)cc32)c(F)c1F [Compound 94, 5,6-Dichloro-1-pentafluorophenylmethyl-2-(2,2,2-trifluoro-ethyl)-1H-benzoimidazole] | inactive
15 | Cc1cccc(Cn2c(CC(F)(F)F)nc3cc(Cl)c(Cl)cc32)c1 [Compound 95, 5,6-Dichloro-1-(3-methyl-benzyl)-2-(2,2,2-trifluoro-ethyl)-1H-benzoimidazole] | inactive
16 | O=C(Cn1c(CC(F)(F)F)nc2cc(Cl)c(Cl)cc21)c1cccc([N+](=O)[O-])c1 [Compound 96, 2-[5,6-Dichloro-2-(2,2,2-trifluoro-ethyl)-benzoimidazol-1-yl]-1-(3-nitro-phenyl)-ethanone] | inactive
17 | FC(F)(F)Cc1nc2cc(Cl)c(Cl)cc2n1Cc1ccccc1 [Compound 97, 1-Benzyl-5,6-dichloro-2-(2,2,2-trifluoro-ethyl)-1H-benzoimidazole] | active
18 | OCCn1c(CC(F)(F)F)nc2cc(Cl)c(Cl)cc21 [Compound 98, 2-[5,6-Dichloro-2-(2,2,2-trifluoro-ethyl)-benzoimidazol-1-yl]-ethanol] | active
19 | FC(F)(F)Cc1nc2cc(Cl)c(Cl)cc2n1Cc1cccnc1 [Compound 99, 5,6-Dichloro-1-pyridin-3-ylmethyl-2-(2,2,2-trifluoro-ethyl)-1H-benzoimidazole] | active
20 | FC(F)(F)Cc1nc2cc(Cl)c(Cl)cc2n1Cc1ccc(C(F)(F)F)cc1 [Compound 100, 5,6-Dichloro-2-(2,2,2-trifluoro-ethyl)-1-(4-trifluoromethyl-benzyl)-1H-benzoimidazole] | active

Row | SMILES | Activity
21 | FC(F)(F)Cc1nc2cc(Cl)c(Cl)cc2n1Cc1ccc(OC(F)(F)F)cc1 [Compound 101, 5,6-Dichloro-2-(2,2,2-trifluoro-ethyl)-1-(4-trifluoromethoxy-benzyl)-1H-benzoimidazole] | inactive
22 | FC(F)(F)Cc1nc2cc(Cl)c(Cl)cc2n1Cc1ccccn1 [Compound 102, 5,6-Dichloro-1-pyridin-2-ylmethyl-2-(2,2,2-trifluoro-ethyl)-1H-benzoimidazole] | active
23 | O=C(Cn1c(CC(F)(F)F)nc2cc(Cl)c(Cl)cc21)c1ccc2c(c1)OCCO2 [Compound 104, 2-[5,6-Dichloro-2-(2,2,2-trifluoro-ethyl)-benzoimidazol-1-yl]-1-(2,3-dihydro-benzo[1,4]dioxin-6-yl)-ethanone] | inactive
24 | O=[N+]([O-])c1ccc(Cn2c(CC(F)(F)F)nc3cc(Cl)c(Cl)cc32)cc1 [Compound 105, 5,6-Dichloro-1-(4-nitro-benzyl)-2-(2,2,2-trifluoro-ethyl)-1H-benzoimidazole] | active
25 | CO[C@@](C(=O)OC(c1nc2cc(Cl)c(Cl)cc2[nH]1)C(F)(F)F)(c1ccccc1)C(F)(F)F (stereo partly drawn) [Compound 106] | active
26 | FC(F)(F)Cc1nc2cc(Cl)c(Cl)cc2n1Cc1ccncc1 [Compound 108, 5,6-Dichloro-1-pyridin-4-ylmethyl-2-(2,2,2-trifluoro-ethyl)-1H-benzoimidazole] | active
27 | N#Cc1cccc(Cn2c(CC(F)(F)F)nc3cc(Cl)c(Cl)cc32)c1 [Compound 109, 3-[5,6-Dichloro-2-(2,2,2-trifluoro-ethyl)-benzoimidazol-1-ylmethyl]-benzonitrile] | active
28 | N#Cc1ccccc1Cn1c(CC(F)(F)F)nc2cc(Cl)c(Cl)cc21 [Compound 110, 2-[5,6-Dichloro-2-(2,2,2-trifluoro-ethyl)-benzoimidazol-1-ylmethyl]-benzonitrile] | active
29 | Cc1cc2nc(C(O)C(F)(F)F)[nH]c2cc1C (stereo not drawn) [Compound 111, 1-(5,6-Dimethyl-1H-benzoimidazol-2-yl-)2,2,2-trifluoro-ethanol] | inactive
30 | OC(c1nc2cc(Cl)c(F)cc2[nH]1)C(F)(F)F (stereo not drawn) [Compound 112, 1-(5-Chloro-6-fluoro-1H-benzoimidazol-2-yl-)2,2,2-trifluoro-ethanol] | active
31 | OC(c1nc2cc(F)c(F)cc2[nH]1)C(F)(F)F (stereo not drawn) [Compound 113, 1-(5,6-Difluoro-1H-benzoimidazol-2-yl-)2,2,2-trifluoro-ethanol] | inactive
32 | O=C(c1nc2cc(Cl)c(Cl)cc2[nH]1)C(F)(F)F [Compound 114, 1-(5,6-DiChloro-1H-benzoimidazol-2-yl)-2,2,2-trifluoro-ethanone] | active
33 | Fc1ccc(OCCn2c(CC(F)(F)F)nc3cc(Cl)c(Cl)cc32)cc1 [Compound 115, 5,6-Dichloro-1-[2-(4-fluoro-phenoxy)-ethyl]-2-(2,2,2-trifluoro-ethyl)-1H-benzoimidazole] | active
34 | N#Cc1ccc(Cn2c(CC(F)(F)F)nc3cc(Cl)c(Cl)cc32)cc1 [Compound 116, 4-[5,6-Dichloro-2-(2,2,2-trifluoro-ethyl)-benzoimidazol-1-ylmethyl]-benzonitrile] | active
35 | Fc1ccccc1Cn1c(CC(F)(F)F)nc2cc(Cl)c(Cl)cc21 [Compound 117, 5,6-Dichloro-1-(2-fluoro-benzyl)-2-(2,2,2-trifluoro-ethyl)-1H-benzoimidazole] | active
36 | Fc1cccc(Cn2c(CC(F)(F)F)nc3cc(Cl)c(Cl)cc32)c1 [Compound 119, 5,6-Dichloro-1-(3-fluoro-benzyl)-2-(2,2,2-trifluoro-ethyl)-1H-benzoimidazole] | active
37 | FC(F)(F)Cc1nc2cc(Cl)c(Cl)cc2n1Cc1cccc(Cl)c1 [Compound 120, 5,6-Dichloro-1-(3-chloro-benzyl)-2-(2,2,2-trifluoro-ethyl)-1H-benzoimidazole] | active
38 | FC(F)(F)Cc1nc2cc(Cl)c(Cl)cc2n1Cc1ccc(Cl)cc1 [Compound 121, 5,6-Dichloro-1-(4-chloro-benzyl)-2-(2,2,2-trifluoro-ethyl)-1H-benzoimidazole] | active
39 | Fc1cccc(OCCn2c(CC(F)(F)F)nc3cc(Cl)c(Cl)cc32)c1 [Compound 123, 5,6-Dichloro-1-[2-(3-fluoro-phenoxy)-ethyl]-2-(2,2,2-trifluoro-ethyl)-1H-benzoimidazole] | inactive
